Test results: ChEMBL document CHEMBL1134723, “Synthesis and evaluation of the sunflower derived trypsin inhibitor as a potent inhibitor of the type II transmembrane serine protease, matriptase” (Bioorg Med Chem Lett, 2001)

Biological target: Prothrombin (Bos taurus, UniProt P00735)
Experiment: Compound was tested for inhibition of bovine Thrombin

Compound `CC[C@H](C)[C@@H]1NC(=O)[C@@H]2CCCN2C(=O)[C@@H]2CCCN2C(=O)[C@H]([C@@H](C)CC)NC(=O)[C@H](CO)NC(=O)[C@H](CCCCN)NC(=O)[C@H]([C@@H](C)O)NC(=O)[C@@H]2CSSC[C@H](NC1=O)C(=O)N[C@@H](Cc1ccccc1)C(=O)N1CCC[C@@H]1C(=O)N[C@@H](CC(=O)O)C(=O)NCC(=O)N[C@@H](CCCN=C(N)N)C(=O)N2` has a Ki of 5.05 µM.
